Assay results as given in US5118705A, “Water soluble salts of purpuromycin and pharmaceutical formulations thereof” (Gruppo Lepetit S.p.A., priority 1990, dated 1992).
Converted amounts (≈) assume the structure as drawn. “Also recorded” adds a separate entry of the source. Structures can show the parent of a compound that is named as a salt. Where two headings read alike, the source gives them in different places.

Columns and labels:
yeasts = conditions: cited from earlier work
[1] = system: Candida albicans ATCC 10231; assay: Activity against Candida strains, two-fold dilution method; format: cell-based; conditions: Candida albicans
Procedure: (§1) This set of experiments included also one strain each of two other Candida species, Candida tropicalis and Candida kruzei. The M.I.C. were determined by the two-fold dilution method in buffered (0.01 M phosphate buffer, pH 7.4) yeast nitrogen base medium (Difco) supplemented with 1.5 g/liter asparagine in microtiter trays. Inocula were approximately 10^4 colony forming units/ml. Incubation was for 20 h at 30° C. Purpuromycin was dissolved in DMSO and added to the cultures as above.

[2] = system: Candida albicans SKF 2270; assay: as above; format: cell-based; conditions: Candida albicans
Procedure: as §1

[3] = system: Gardnerella vaginalis ATCC 14018 and other 11 clinical isolates; assay: Activity against Gardnerella vaginalis, standard two fold dilution methods; conditions: for Number of strains with MIC of 8 mcg/ml: MIC 8 mcg/ml
Procedure: The strains were grown on Casman medium (Difco) plus 5% (v/v) whole rabbit blood and 0.15 (v/v) lysed rabbit blood. Inoculum size: approximately 10^4 colony forming units per spot. Incubation in an anaerobic hood: 48 hours at 37° C.

[4] = system: Trichomonas vaginalis strain TVL; assay: Activity against Trichomonas vaginalis, two-fold tube dilution method; format: cell-based; conditions: Trichomonas vaginalis, 48 hours at 37° C.
Procedure: Trichomonas vaginalis (applicant's internal code TVL) was grown on Trichomonas Culture Medium Base (Merck) plus 10% heat treated horse serum. Inoculum: approximately 10^5 organisms/ml. Incubation: 48 hours at 37° C.

[5] = system: Candida albicans strain SKF 2270; assay: Topical antifungal activity in ovariectomized rats (yeast vaginal infection); format: in vivo, rats (Charles River); conditions: twice daily for three days
Procedure: The effectiveness of the water soluble salts of purpuromycin in the topical treatment of yeast vaginal infection was also tested in ovariectomized rats (Charles River) treated subcutaneously with 4 mg of estradiol benzoate approximately two weeks after ovariectomy. Five days later they were inoculated intravaginally with approximately 5×10^6 colony forming units (CFU) of Candida albicans strain SKF 2270 in 25 microliters of Nutrient Broth (no.2, Oxoid) containing 15% (vol/vol) of glycerol. Topical intravaginal therapy was twice daily for three days, starting one day after infection, with 100 microliters of a water soluble salt of purpuromycin suspension in a mixture of 10:90 DMSO-polyethylene glycol 400, corresponding to 2 or 5 mg/rat/treatment. The day after the last treatment, vaginal smear samples (calibrated 10 microliter loops) were diluted and plated for viable organism counts on Sabouraud agar (Difco). Each group contained 10 animals.

[6] = Solubility and pH of solution; format: physicochemical
[7] = system: Bacteroides fragilis ATCC 23745; assay: In vitro activity, M.I.C., microbroth dilution; format: cell-based; conditions: salts calculated as weight of purpuromycin, 37° C., 48 h, anaerobic hood
Procedure: (§2) MIC were determined by the microbroth dilution test. Bacteria were grown at 37° C., fungi at 30° C. Incubation was for 20 h, except for Propionibacterium acnes, Bacteroides fragilis, Neisseria gonorrhoeae, Haemophilus influenzae (48 h) and Trichophyton mentagrophytes (72h) Neisseria gonorrhoeae and Haemophilus influenzae were incubated in a CO2 -enriched (5%) atmosphere; Propionibacterium acnes and Bacteroides fragilis in an anaerobic hood. Media used were: Oxoid Iso-sensitest broth (Staphylococci, Enterococcus faecalis and Escherichia coli); Difco Todd-Hewitt broth (streptococci); Difco GC base broth with 1% BBL IsoVitaleX (Neisseria gonorrhoeae); Difco Brain-Heart Infusion broth with 1% Difco supplement C (Haemophilus influenzae); Difco Wilkins-Chalgren broth (Propionibacterium acnes and Bacteroides fragilis); Difco Yeast Nitrogen Base broth with 1.5 g/1 asparagine (Candida albicans); Difco Sabouraud-dextrose broth (Trichophyton mentagrophytes). Inocula were approximately 10^4 CFU/ml.

[8] = system: Enterococcus faecalis ATCC 7080; assay: In vitro activity, M.I.C., microbroth dilution; format: cell-based; conditions: salts calculated as weight of purpuromycin, 37° C., 20 h
Procedure: as §2

[9] = system: Propionibacterium acnes ATCC 6919; assay: In vitro activity, M.I.C., microbroth dilution; format: cell-based; conditions: salts calculated as weight of purpuromycin, 37° C., 48 h, anaerobic hood
Procedure: as §2

[10] = system: Staph. epidermidis ATCC 12228; assay: In vitro activity, M.I.C., microbroth dilution; format: cell-based; conditions: salts calculated as weight of purpuromycin, 37° C., 20 h
Procedure: as §2

Strep. pyogenes L49 = assay: In vitro activity, M.I.C., microbroth dilution; format: cell-based; conditions: salts calculated as weight of purpuromycin, 37° C., 20 h
Procedure: as §2

[11] = system: Candida albicans SKF 2270; assay: In vitro activity, M.I.C., microbroth dilution; format: cell-based; conditions: salts calculated as weight of purpuromycin, 30° C., 20 h
Procedure: as §2

Strep. pneumoniae L44 = assay: In vitro activity, M.I.C., microbroth dilution; format: cell-based; conditions: salts calculated as weight of purpuromycin; 37° C., 20 h
Procedure: as §2

[12] = system: Neisseria gonorrhoeae L 997; assay: In vitro activity, M.I.C., microbroth dilution; format: cell-based; conditions: salts calculated as weight of purpuromycin, 37° C., 48 h, 5% CO2
Procedure: as §2

[13] = system: Haemophilus influenzae ATCC 19418; assay: In vitro activity, M.I.C., microbroth dilution; format: cell-based; conditions: salts calculated as weight of purpuromycin; 37° C., 48 h, 5% CO2
Procedure: as §2

Staph. haemolyticus L602 = assay: In vitro activity, M.I.C., microbroth dilution; format: cell-based; conditions: salts calculated as weight of purpuromycin, 37° C., 20 h
Procedure: as §2

[14] = system: Trichophyton mentagrophytes SKF 17410; assay: In vitro activity, M.I.C., microbroth dilution; format: cell-based; conditions: salts calculated as weight of purpuromycin, 30° C., 72 h
Procedure: as §2

[15] = system: Escherichia coli SKF 12140; assay: In vitro activity, M.I.C., microbroth dilution; format: cell-based; conditions: salts calculated as weight of purpuromycin; 37° C., 20 h
Procedure: as §2

Staph. aureus Tour L 165 = assay: In vitro activity, M.I.C., microbroth dilution; format: cell-based; conditions: salts calculated as weight of purpuromycin, 37° C., 20 h
Procedure: as §2

Gardnerella vaginalis = assay: In vitro activity, M.I.C., agar dilution; format: cell-based; conditions: salts calculated as weight of purpuromycin, ATCC 14018 and 10 clinical isolates, all same M.I.C., inoculum ca. 10^5 CFU, 48 h
Procedure: **The assay was carried out on strain ATCC 14018 and 10 clinical isolates
Incubation was for 48 h in an anaerobic hood (37° C.); inoculum ca. 10^5 CFU.

[16] = system: Trichomonas vaginalis TVL; assay: In vitro activity, M.I.C., microtiter trays; format: cell-based; conditions: salts calculated as weight of purpuromycin, 48 h, anaerobic hood, 37° C.
Procedure: MIC were performed in flat-bottomed microtiter trays, with 0.2 ml per well. The medium was TYM modified basal medium (Merck) plus 10% horse serum (treated to inactivate complement). The inoculum was ca. 10^5 organisms/ml; incubation was for 48 h in an anaerobic hood (37° C.).The microtiter wells were read using an inverted light microscope. The MIC was taken as the lowest concentration at which no live (mobile) protozoa were seen.

[17] = system: Candida albicans (19 clinical isolates); assay: Activity against Candida strains, two-fold dilution method; format: cell-based; conditions: 20 h at 30° C., pH 7.4
Procedure: (§3) This set of experiments included also one strain each of two other Candida species, Candida tropicalis and Candida kruzei. The M.I.C. were determined by the two-fold dilution method in buffered (0.01 M phosphate buffer, pH 7.4) yeast nitrogen base medium (Difco) supplemented with 1.5 g/liter asparagine in microtiter trays. Inocula were approximately 10^4 colony forming units/ml. Incubation was for 20 h at 30° C. Purpuromycin was dissolved in DMSO and added to the cultures as above. The following TABLE IV reports the MIC values for the whole set of strains.

Candida kruzei L 244 = assay: as above; format: cell-based; conditions: L244, 20 h at 30° C., pH 7.4
Procedure: as §3

Candida tropicalis L 243 = assay: as above; format: cell-based; conditions: L243, 20 h at 30° C., pH 7.4
Procedure: as §3

Stability = format: physicochemical
[18] = system: Gram-positive and Gram-negative bacteria and fungi; conditions: reported in UK Patent 1455128 and U.S. Pat. No. 3,914,257; cited from earlier work
[19] = conjugate acid of the second basic group; cited from earlier work
[20] = Biological activity (general statement); conditions: formed by hydrolysis of the carbomethoxy group of purpuromycin

Cc1ncc([N+](=O)[O-])n1CCO [Metronidazole]
activity against yeasts (yeasts): not active against yeasts
MIC ([1]; ATCC10231, 20 h, comparative tests, antibacterial agents, read-out: M.I.C.): > 128 µg/mL
MIC ([2]; SKF2270, 20 h, comparative tests, antibacterial agents, read-out: M.I.C.): > 128 µg/mL
MIC ([3]; Gardnerella vaginalis, read-out: MIC on resistant strains): > 32 µg/mL
Number of strains with MIC of 4 mcg/ml ([3]; MIC 4 mcg/ml, 12 strains tested): 1 strains
Number of strains with MIC of 8 mcg/ml ([3]; 12 strains tested): 3 strains
Number of strains with MIC of 16 mcg/ml ([3]; MIC 16 mcg/ml, 12 strains tested): 4 strains
Number of strains with MIC of 128 mcg/ml ([3]; MIC 128 mcg/ml, 12 strains tested): 3 strains
MIC ([4]; read-out: MIC): 0.25 µg/mL (≈ 1.46 µM)

COC(=O)c1cc2cc3c(c(O)c2c(=O)o1)OC1(Cc2c(O)c4c(c(O)c2O1)C(=O)C(OC)=CC4=O)CC3O [Purpuromycin salt with L-lysine (1:1.5), Salt of purpuromycin with L-lysine]
Mean log10 CFU/smear sample ± SD ([5]; 2 mg/rat/treatment intravaginal, vehicle 3.87 ± 0.50, P < 0.01 vs group 1 controls): 2.60 ± 0.49 log10 CFU/smear sample
numbers of viable yeasts cell/sample ([5]; topical intravaginal): significantly reduced numbers of viable yeasts cell/sample
pH value of a 0.5% (w/v) solution ([6]; distilled water): 8.5
solubility in distilled water ([6]; room temperature, calculated as purpuromycin, listed as Example 2): 7400 µg/mL
MIC ([7]; Bacteroides fragilis, ATCC23745): 0.13 µg/mL
MIC ([8]; Enterococcus faecalis, ATCC7080): 0.06 µg/mL
MIC ([9]; Cutibacterium acnes, ATCC6919): 0.06 µg/mL
MIC ([10]; Staphylococcus epidermidis, ATCC12228): 0.06 µg/mL
MIC (Strep. pyogenes L49; Streptococcus pyogenes, L49): 0.06 µg/mL
MIC ([11]; Candida albicans, SKF2270): 1 µg/mL
M.I.C. (Strep. pneumoniae L44): 0.13 mg/L
MIC ([12]; Neisseria gonorrhoeae, L997): 0.06 µg/mL
M.I.C. [13]: 0.13 mg/L
MIC (Staph. haemolyticus L602; Staphylococcus haemolyticus, L602): 0.06 µg/mL
MIC ([14]; Trichophyton mentagrophytes, SKF17410): 1 µg/mL
M.I.C. [15]: 32 mg/L
MIC (Staph. aureus Tour L 165; Staphylococcus aureus, TOURL165): 0.06 µg/mL
MIC (Gardnerella vaginalis; Gardnerella vaginalis): 16 µg/mL
MIC ([16]; Trichomonas vaginalis): 4 µg/mL

COC(=O)c1cc2cc3c(c(O)c2c(=O)o1)OC1(Cc2c(O)c4c(c(O)c2O1)C(=O)C(OC)=CC4=O)CC3O (stereo not shown) [Purpuromycin]
MIC [17]: 1 to 4 µg/mL (≈ 1.86 to 7.43 µM)
MIC (Candida kruzei L 244): 4 µg/mL (≈ 7.43 µM)
MIC (Candida tropicalis L 243): 2 µg/mL (≈ 3.71 µM)
stability (in words) (Stability): hydrolysis of the carbomethoxy group; also recorded: undergoes a degradation process
MIC ([1]; ATCC10231, 20 h at 30° C., pH 7.4, read-out: MIC): 0.5 µg/mL (≈ 0.929 µM)
MIC ([2]; SKF2270, 20 h at 30° C., pH 7.4, read-out: MIC): 1 µg/mL (≈ 1.86 µM)
solubility ([6]; buffer, pH 8.5, aqueous buffer, pH 8.5 buffer, read-out: solubility in water): 22 µg/mL (≈ 40.9 µM)
solubility (in words) ([6]; solvent): practically insoluble in water and in lower alkanols; also recorded: poorly soluble in most organic solvents
in vitro antimicrobial activity [18]: active in vitro against both Gram-positive and Gram-negative bacteria and fungi
Number of strains with MIC of 8 mcg/ml ([3]; 12 strains tested): 12 strains
M.I.C. [7]: 0.13 mg/L
M.I.C. [8]: 0.06 mg/L
M.I.C. [9]: 0.06 mg/L
M.I.C. [10]: 0.06 mg/L
M.I.C. (Strep. pyogenes L49): 0.06 mg/L
M.I.C. [11]: 1 mg/L
M.I.C. (Strep. pneumoniae L44): 0.06 mg/L
M.I.C. [12]: 0.06 mg/L
M.I.C. [13]: 0.06 mg/L
M.I.C. (Staph. haemolyticus L602): 0.06 mg/L
M.I.C. [14]: 1 mg/L
M.I.C. [15]: 8 mg/L
M.I.C. (Staph. aureus Tour L 165): 0.06 mg/L
MIC ([4]; dissolved in DMSO, read-out: minimal inhibitory concentration (M.I.C.)): 4 µg/mL (≈ 7.43 µM)
MIC ([4]; read-out: MIC): 4 µg/mL (≈ 7.43 µM)
M.I.C. (Gardnerella vaginalis): 16 mg/L
M.I.C. [16]: 4 mg/L

COC(=O)c1cc2cc3c(c(O)c2c(=O)o1)OC1(Cc2c(O)c4c(c(O)c2O1)C(=O)C(OC)=CC4=O)CC3O (stereo not shown) [arginine salt]
stability (in words) (Stability): not sufficiently stable

N=C(N)NCCC[C@H](N)C(=O)O [arginine]
pK3 value [19]: higher than 13

COC1=CC(=O)c2c(O)c3c(c(O)c2C1=O)OC1(C3)CC(O)c2cc3cc(C(=O)O)oc(=O)c3c(O)c2O1 (stereo not shown) [carboxylic acid derivative]
activity of degradation product [20]: almost inactive
